These results are taken from publication doi:10.1101/737510v1 (biorxiv, 2019).

Assay type in all cases: binding
Experiment [1] deals with DCAF15-DDB1(ΔBPB)-DDA1 and RBM39(Δ150) mixture (Homo sapiens, UniProt Q14498+Q66K64). Put plainly: isothermal titration calorimetry.
Experiment [2] deals with DCAF15-DDB1(ΔBPB)-DDA1 (Homo sapiens, UniProt Q66K64). The experiment is described as follows: isothermal titration calorimetry.
Experiment [3] deals with DCAF15-DDB1-DDA1 with RBM39(Δ150) (Homo sapiens, UniProt Q14498+Q66K64). The experiment is described as follows: TR-FRET ternary complex recruitment assay.
Experiment [4] concerns the target T1, RBM39(Δ150) (Homo sapiens, UniProt Q14498).
T1 sequence (Q14498 151-530): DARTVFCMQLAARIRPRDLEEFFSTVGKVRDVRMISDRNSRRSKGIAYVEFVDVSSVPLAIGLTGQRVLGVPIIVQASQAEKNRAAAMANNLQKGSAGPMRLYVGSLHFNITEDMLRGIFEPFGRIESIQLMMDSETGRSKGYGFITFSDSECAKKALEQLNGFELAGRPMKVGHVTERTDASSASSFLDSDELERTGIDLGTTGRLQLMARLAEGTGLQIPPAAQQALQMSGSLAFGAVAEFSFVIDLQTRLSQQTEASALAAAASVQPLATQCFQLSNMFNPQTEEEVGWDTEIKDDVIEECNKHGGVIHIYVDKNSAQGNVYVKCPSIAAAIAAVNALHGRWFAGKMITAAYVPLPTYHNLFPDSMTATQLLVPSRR
The experiment is described as follows: isothermal titration calorimetry.

Turning to `NS(=O)(=O)c1ccc(S(=O)(=O)Nc2cccc3c(Cl)c[nH]c23)cc1` [Indisulam], the Kd was 187 nM in experiment [1], ~17 µM in experiment [2] and > 50 µM in experiment [4]. In experiment [3], this compound registered an EC50 of 3.4 µM.
As for `N#Cc1c[nH]c2c(NS(=O)(=O)c3ccc(S(N)(=O)=O)cc3)cccc12` [compound 2, N-(3-cyano-1H-indol-7-yl)benzene-1,4-disulfonamide], in experiment [3], the EC50 was 1.21 µM.
On the same count and under the same terms, the value for `Cc1ccc(NS(=O)(=O)c2ccc(N)cc2)c2[nH]cc(C#N)c12` [compound 6, Compound 6] was 3.82 µM; that for `Cc1ccc(NS(=O)(=O)c2ccc(CN)cc2)c2[nH]cc(C#N)c12` [compound 7, 4-(aminomethyl)-N-(3-cyano-4-methyl-1H-indol-7-yl)benzenesulfonamide] was 2.38 µM.
Still for that read-out and setting: the value for `O=S(=O)(Nc1cccc2c(Cl)c[nH]c12)c1ccccc1` [compound 5, N-(3-chloro-1H-indol-7-yl)benzenesulfonamide] was 38.1 µM; that for `NS(=O)(=O)c1ccc(S(=O)(=O)Nc2cccc3cc[nH]c23)cc1` [compound 3, N-(1H-indol-7-yl)benzene-1,4-disulfonamide] was > 50 µM.
Still for that read-out and setting: the value for `Cc1c[nH]c2c(NS(=O)(=O)c3ccc(S(N)(=O)=O)cc3)cccc12` [compound 1, N-(3-methyl-1H-indol-7-yl)benzene-1,4-disulfonamide] was 14.3 µM; that for `Cc1c[nH]c2c(NS(=O)(=O)c3ccc(S(=O)(=O)N(C)C)cc3)cccc12` [compound 4, N^1,N^1-dimethyl-N^4-(3-methyl-1H-indol-7-yl)benzene-1,4-disulfonamide] was 12.3 µM.
